{"source": "patent US8697742B2", "about": "“BCRP/ABCG2 inhibitor” (Kabushiki Kaisha Yakult Honsha, priority 2005, dated 2014)", "note": "Structures can show the parent of a compound that is named as a salt."}
{"tested_on": "A549/SN-38-4 cells", "assay": "Effect of overcoming SN-38 resistance of BCRP-expressing A549/SN-38-4 cells", "format": "cell-based, human", "conditions": "Homo sapiens, A549, 48 h, concentration for 50% reduction of relative SN-38 resistance value (IC50 A549/SN-38-4 / IC50 A549); 48 hours culture with SN-38; read-out: Effect of overcoming resistance EC50", "protocol": "(§1) The human lung cancer A549 cells or the A549/SN-38-4 cells were suspended in a Ham's F-12 medium containing 10% FBS, 100 U/mL of penicillin, and 100 μg/mL of streptomycin (10% FBS/Ham's F-12), and the resultant suspension was inoculated into a 96-well microplate (2×10^3 cells/50 μL/well), followed by culturing at 5% CO2 and 37° C. overnight. […] After completion of culturing, the number of viable cells was counted by use of a viable cell counting reagent [TetraColor ONE (trademark), product of Seikagaku Corporation] according to the attached instruction manual. […] The greater the relative resistance value, the higher the level of acquired resistance.", "units": {"EC50": "mg/L"}}
{"smiles": "COc1ccc(/C(C#N)=C/c2ccc(N(C)CCO)s2)cc1OC", "note": "[Compound 7, (Z)-2-(3,4-dimethoxy-phenyl)-3-{5-[(2-hydroxy-ethyl)-methyl-amino]-thiophen-2-yl}-acrylonitrile]", "EC50": 0.039}
{"smiles": "COc1ccc(/C(C#N)=C/c2ccc(N3CCN(C)CC3)s2)cc1OC", "note": "[Compound 8, (Z)-2-(3,4-dimethoxy-phenyl)-3-[5-(4-methyl-piperazin-1-yl)-thiophen-2-yl]-acrylonitrile]", "EC50": 0.045}
{"smiles": "N#C/C(=C\\c1ccnc2ccccc12)c1cccs1", "note": "[Compound 87, (E)-3-quinolin-4-yl-2-thiophen-2-yl-acrylonitrile]", "EC50": 0.046}
{"smiles": "COc1ccc(/C(C#N)=C/c2cc(-c3ccc(F)cc3)on2)cc1OC", "note": "[Compound 76, (Z)-2-(3,4-dimethoxy-phenyl)-3-[5-(4-fluoro-phenyl)-isoxazol-3-yl]-acrylonitrile]", "EC50": 0.002}
{"smiles": "COc1ccc2nc(Cl)c(/C=C(\\C#N)c3ccc(OC)c(OC)c3)cc2c1", "note": "[Compound 73, (Z)-3-(2-chloro-6-methoxy-quinolin-3-yl)-2-(3,4-dimethoxy-phenyl)-acrylonitrile]", "EC50": 0.011}
{"smiles": "COc1ccc2nc(Cl)c(/C=C(\\C#N)c3ccsc3)cc2c1", "note": "[Compound 82, (Z)-3-(2-chloro-6-methoxy-quinolin-3-yl)-2-thiophen-3-yl-acrylonitrile]", "EC50": 0.078}
{"smiles": "N#C/C(=C\\c1ccnc2ccccc12)c1ccsc1", "note": "[Compound 88, (Z)-3-quinolin-4-yl-2-thiophen-3-yl-acrylonitrile]", "EC50": 0.07}
{"smiles": "N#C/C(=C\\c1cc2ccccc2o1)c1coc2ccccc12", "note": "[Compound 91, (Z)-3-benzofuran-2-yl-2-benzofuran-3-yl-acrylonitrile]", "EC50": 0.52}
{"smiles": "N#C/C(=C\\c1csc2ccccc12)c1nc2ccccc2s1", "note": "[Compound 90, (E)-3-benzo[b]thiophen-3-yl-2-benzothiazol-2-yl-acrylonitrile]", "EC50": 0.46}
{"smiles": "COc1ccc(/C(C#N)=C/c2ccc(N3CCC(OC(=O)CN(C)C)CC3)s2)cc1OC.Cc1ccc(S(=O)(=O)O)cc1", "note": "[Compound 62, 1-[5-[(Z)-2-cyano-2-(3,4-dimethoxy-phenyl)-vinyl]-thiophen-2-yl]-piperidin-4-yl dimethylamino-acetate p-toluenesulfonate]", "EC50": 0.062}
{"smiles": "N#C/C(=C\\c1ccnc2ccccc12)c1ccccn1", "note": "[Compound 85, (Z)-2-pyridin-2-yl-3-quinolin-4-yl-acrylonitrile]", "EC50": 0.23}
{"smiles": "COc1ccc(/C(C#N)=C/c2ccc3ccccc3n2)cc1OC", "note": "[Compound 78, (Z)-2-(3,4-dimethoxy-phenyl)-3-quinolin-2-yl-acrylonitrile]", "EC50": 0.077}
{"smiles": "COc1ccc(/C(C#N)=C/c2c3ccccc3c(Cl)c3ccccc23)cc1OC", "note": "[Compound 93, (Z)-3-(10-chloro-anthracen-9-yl)-2-(3,4-dimethoxy-phenyl)-acrylonitrile]", "EC50": 0.28}
{"smiles": "COc1ccc(/C(C#N)=C/c2ccnc3ccccc23)cc1OC", "note": "[Compound 65, (Z)-2-(3,4-dimethoxy-phenyl)-3-quinolin-4-yl-acrylonitrile]", "EC50": 0.011}
{"smiles": "COc1ccc(/C(C#N)=C/c2csc3ccccc23)cc1OC", "note": "[Compound 66, (Z)-3-benzo[b]thiophen-3-yl-2-(3,4-dimethoxy-phenyl)-acrylonitrile]", "EC50": 0.037}
{"smiles": "N#C/C(=C\\c1ccnc2ccccc12)c1cccnc1", "note": "[Compound 86, (Z)-2-pyridin-3-yl-3-quinolin-4-yl-acrylonitrile]", "EC50": 0.12}
{"smiles": "Cn1cc(/C=C(\\C#N)c2nc3ccccc3s2)c2ccccc21", "note": "[Compound 92, (E)-2-benzothiazol-2-yl-3-(1-methyl-1H-indol-3-yl)-acrylonitrile]", "EC50": 0.041}
{"smiles": "CCN(CC)CCCNC(=O)CCC(=O)OC1CCN(c2ccc(/C=C(\\C#N)c3ccc(OC)c(OC)c3)s2)CC1", "note": "[Compound 61, 1-[5-[(Z)-2-cyano-2-(3,4-dimethoxy-phenyl)-vinyl]-thiophen-2-yl]-piperidin-4-yl N-(3-diethylamino-propyl)-succinamate hydrochloride]", "EC50": 0.044}
{"smiles": "COc1ccc(/C=C(\\C#N)c2ccc(OC)c(OC)c2)cn1", "note": "[Compound 35, (Z)-2-(3,4-dimethoxy-phenyl)-3-(6-methoxy-pyridin-3-yl)-acrylonitrile]", "EC50": 0.19}
{"smiles": "COc1ccc(/C(C#N)=C/c2ccc(N3CCN(CCO)CC3)s2)cc1OC", "note": "[Compound 9, (Z)-2-(3,4-dimethoxy-phenyl)-3-{5-[4-(2-hydroxy-ethyl)-piperazin-1-yl]-thiophen-2-yl}-acrylonitrile]", "EC50": 0.046}
{"smiles": "COc1ccc2nc(Cl)c(/C=C(\\C#N)c3cccnc3)cc2c1", "note": "[Compound 80, (Z)-3-(2-chloro-6-methoxy-quinolin-3-yl)-2-pyridin-3-yl-acrylonitrile]", "EC50": 0.019}
{"smiles": "COc1ccc(/C(C#N)=C/c2cn(C)c3ccccc23)cc1OC", "note": "[Compound 68, (Z)-2-(3,4-dimethoxy-phenyl)-3-(1-methyl-1H-indol-3-yl)-acrylonitrile]", "EC50": 0.011}
{"smiles": "CCN(CC)C(=O)OC1CCN(c2ccc(/C=C(\\C#N)c3ccc(OC)c(OC)c3)s2)CC1", "note": "[Compound 97, 1-[5-[(Z)-2-cyano-2-(3,4-dimethoxy-phenyl)-vinyl]-thiophen-2-yl]-piperidin-4-yl diethyl-carbamate]", "EC50": 0.078}
{"smiles": "CCN(CC)CC(=O)OC1CCN(c2ccc(/C=C(\\C#N)c3ccc(OC)c(OC)c3)s2)CC1.Cc1ccc(S(=O)(=O)O)cc1", "note": "[Compound 96, 1-[5-[(Z)-2-cyano-2-(3,4-dimethoxy-phenyl)-vinyl]-thiophen-2-yl]-piperidin-4-yl diethylamino-acetate p-toluenesulfonate]", "EC50": 0.12}
{"smiles": "COc1ccc2nc(Cl)c(/C=C(\\C#N)c3ccccn3)cc2c1", "note": "[Compound 79, (Z)-3-(2-chloro-6-methoxy-quinolin-3-yl)-2-pyridin-2-yl-acrylonitrile]", "EC50": 0.006}
{"smiles": "COc1ccc(/C(C#N)=C/c2ccc(Br)o2)cc1OC", "note": "[Compound 54, (Z)-3-(5-bromo-furan-2-yl)-2-(3,4-dimethoxy-phenyl)-acrylonitrile]", "EC50": 0.036}
{"smiles": "COc1ccc(/C(C#N)=C/c2ccc3c(c2)CCO3)cc1OC", "note": "[Compound 75, (Z)-3-(2,3-dihydro-benzofuran-5-yl)-2-(3,4-dimethoxy-phenyl)-acrylonitrile]", "EC50": 0.017}
{"smiles": "COc1ccc(/C(C#N)=C/c2nc3ccccc3n2C)cc1OC", "note": "[Compound 67, (Z)-2-(3,4-dimethoxy-phenyl)-3-(1-methyl-1H-benzimidazol-2-yl)-acrylonitrile]", "EC50": 0.1}
{"tested_on": "A549/SN-38-4 cells", "assay": "Effect of overcoming SN-38 resistance of BCRP-expressing A549/SN-38-4 cells", "format": "cell-based, human", "conditions": "concentration for 50% reduction of relative SN-38 resistance value (IC50 A549/SN-38-4 / IC50 A549); 48 hours culture with SN-38", "protocol": "as §1", "units": {"Effect of overcoming resistance EC50": "mg/L"}}
{"smiles": "COc1ccc(/C(C#N)=C/c2ccc(N3CCC(OC(=O)CCC(=O)O)CC3)o2)cc1OC", "note": "[Compound 51, mono-(1-{5-[(Z)-2-cyano-2-(3,4-dimethoxy-phenyl)-vinyl]-furan-2-yl}-piperidin-4-yl)succinate]", "Effect of overcoming resistance EC50": 0.51}
{"smiles": "COc1ccc(/C(C#N)=C/c2ccc(N3CCN(CCO)CC3)s2)cc1OC.COc1ccc(/C(C#N)=C/c2ccc(N3CCN(CCO)CC3)s2)cc1OC.O=S(=O)(O)O", "note": "[Compound 100, (Z)-2-(3,4-dimethoxy-phenyl)-3-{5-[4-(2-hydroxy-ethyl)-piperazin-1-yl]-thiophen-2-yl}-acrylonitrile ½ sulfate]", "Effect of overcoming resistance EC50": 0.012}
{"smiles": "COc1ccc(/C=C(\\C#N)c2coc3ccccc23)cc1OC", "note": "[Compound 72, (Z)-2-benzofuran-3-yl-3-(3,4-dimethoxy-phenyl)-acrylonitrile]", "Effect of overcoming resistance EC50": 0.011}
{"smiles": "COc1ccc(/C(C#N)=C/c2cc3ccccc3o2)cc1OC", "note": "[Compound 69, (Z)-3-benzofuran-2-yl-(3,4-dimethoxy-phenyl)-acrylonitrile]", "Effect of overcoming resistance EC50": 0.043}
{"smiles": "COc1ccc(/C(C#N)=C/c2ccc(-c3cccc(N)c3)o2)cc1OC", "note": "[Compound 22, (Z)-3-[5-(3-amino-phenyl)-furan-2-yl]-2-(3,4-dimethoxy-phenyl)-acrylonitrile]", "Effect of overcoming resistance EC50": 0.013}
{"tested_on": "A549/SN-38-4 cells", "assay": "Effect of overcoming SN-38 resistance of BCRP-expressing A549/SN-38-4 cells", "format": "cell-based, human", "conditions": "concentration for 50% reduction of relative SN-38 resistance value (IC50 A549/SN-38-4 / IC50 A549); 48 hours culture with SN-38; hydrochloride", "protocol": "as §1", "units": {"Effect of overcoming resistance EC50": "mg/L"}}
{"smiles": "COc1ccc(/C(C#N)=C/c2ccc(N3CCCCC3)s2)cc1OC", "note": "[Compound 11, (Z)-2-(3,4-dimethoxy-phenyl)-3-(5-piperidin-1-yl-thiophen-2-yl)-acrylonitrile hydrochloride]", "Effect of overcoming resistance EC50": 0.049}
{"smiles": "COc1ccc(/C(C#N)=C/c2ccc(N3CCN(C)CC3)o2)cc1OC", "note": "[Compound 29, (Z)-2-(3,4-dimethoxy-phenyl)-3-[5-(4-methyl-piperazin-1-yl)-furan-2-yl]-acrylonitrile hydrochloride]", "Effect of overcoming resistance EC50": 0.42}
{"smiles": "COc1ccc(/C(C#N)=C/c2ccc(N(C)CCN(C)C)s2)cc1OC", "note": "[Compound 15, (Z)-2-(3,4-dimethoxy-phenyl)-3-{5-[(2-dimethylamino-ethyl)-methyl-amino]-thiophen-2-yl}-acrylonitrile hydrochloride]", "Effect of overcoming resistance EC50": 0.2}
{"smiles": "COc1ccc(/C=C(\\C#N)c2ccc(OC)c(OC)c2)cn1", "note": "[Compound 37, (Z)-2-(3,4-dimethoxy-phenyl)-3-(6-methoxy-pyridin-3-yl)-acrylonitrile hydrochloride]", "Effect of overcoming resistance EC50": 0.12}
{"tested_on": "A549/SN-38-4 cells", "assay": "Effect of overcoming SN-38 resistance of BCRP-expressing A549/SN-38-4 cells", "format": "cell-based, human", "conditions": "concentration for 50% reduction of relative SN-38 resistance value (IC50 A549/SN-38-4 / IC50 A549); 48 hours culture with SN-38; nitrate", "protocol": "as §1", "units": {"Effect of overcoming resistance EC50": "mg/L"}}
{"smiles": "COc1ccc(/C(C#N)=C/c2ccc(N3CCN(CCO)CC3)s2)cc1OC", "note": "[Compound 102, (Z)-2-(3,4-dimethoxy-phenyl)-3-{5-[4-(2-hydroxy-ethyl)-piperazin-1-yl]-thiophen-2-yl}-acrylonitrile nitrate]", "Effect of overcoming resistance EC50": 0.017}
